Test results from patent publication US20250230165A1, “HETEROCYCLIC COMPOUNDS FOR USE IN THE TREATMENT OF CANCER” (ARTIOS PHARMA LIMITED, priority 2021, published 2025).

The compounds below were run against T1, Human Polθ polymerase domain (aa1820-2590) (Homo sapiens, UniProt O75417) (assay: Polθ Polymerase Domain Kinact/KI Assay (PicoGreen)). Conditions: 0.8 nM Polθ, 100 nM DNA substrate, kobs vs [I] fit for 2-step covalent inhibitor.
T1 construct: Human Polθ polymerase domain (aa1820-2590) was expressed in E. coli; made in house; host or cells: E. coli
T1 sequence (O75417 1820-2590): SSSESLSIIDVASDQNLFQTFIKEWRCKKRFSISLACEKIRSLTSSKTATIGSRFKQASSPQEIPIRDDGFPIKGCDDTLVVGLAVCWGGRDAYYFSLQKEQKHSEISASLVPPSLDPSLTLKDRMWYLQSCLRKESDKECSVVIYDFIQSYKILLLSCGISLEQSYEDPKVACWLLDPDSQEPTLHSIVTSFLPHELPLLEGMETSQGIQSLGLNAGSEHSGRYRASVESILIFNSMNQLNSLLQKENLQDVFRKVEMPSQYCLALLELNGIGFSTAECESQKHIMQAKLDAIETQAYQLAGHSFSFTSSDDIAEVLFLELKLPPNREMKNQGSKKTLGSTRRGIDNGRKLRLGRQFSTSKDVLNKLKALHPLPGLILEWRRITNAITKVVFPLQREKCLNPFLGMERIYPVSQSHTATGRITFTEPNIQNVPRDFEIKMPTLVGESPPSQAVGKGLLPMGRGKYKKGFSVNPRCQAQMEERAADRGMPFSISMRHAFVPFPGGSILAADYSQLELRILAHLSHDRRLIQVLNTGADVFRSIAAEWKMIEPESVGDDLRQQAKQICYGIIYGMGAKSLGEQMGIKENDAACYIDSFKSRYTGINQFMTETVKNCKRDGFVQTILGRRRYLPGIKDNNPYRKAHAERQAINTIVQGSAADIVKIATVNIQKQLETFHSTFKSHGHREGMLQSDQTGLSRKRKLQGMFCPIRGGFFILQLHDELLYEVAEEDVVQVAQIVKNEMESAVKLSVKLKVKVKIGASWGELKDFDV
Assay type: biochemical
How it was run: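 Covalent Kinact/KI by PicoGreen DNA synthesis readout: E. coli-expressed Polθ polymerase domain (0.8 nM), 100 nM annealed DNA substrate, […], Tris pH 7.5 buffer with DTT, 1% DMSO; EDTA-stopped over 0–60 min time course. kobs from progress curves, then kobs vs [I] fit to two-step covalent model.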

Row | SMILES | Kinact/Kl [M⁻¹ s⁻¹]
1 | C=C(CN(C)C)C(=O)N1CC(CCCCN2C[C@H]3CC(=O)N(c4cc(C(F)(F)F)cc(C)n4)[C@@H]3C(=O)Nc3cccc(C)c32)C1 [Example 192, (3aR,11aS)-5-(4-(1-(2-((dimethyl-amino)methyl)-acryloyl)azetidin-3-yl)butyl)-6-meth-yl-1-(6-methyl-4-(trifluoromethyl)-pyridin-2-yl)-1,3a,4,5,10,11a-hexahydro-2H-benzo[b]pyrrolo [2,3-f][1,4]diazo-cine-2,11(3H)-dione] | 2.18e+06
2 | C=C(CN1CCN(C)CC1)C(=O)N1CC(COCCN2C[C@H]3CC(=O)N(c4cc(C(F)(F)F)cc(C)n4)[C@@H]3C(=O)N(C)c3cccc(C)c32)C1 [Example 193, (3aR,11aS)-6,10-dimethyl-1-(6-methyl-4-(trifluoro-methyl)pyridin-2-yl)-5-(2-((1-(2-((4-methylpiperazin-1-yl)methyl)acrylo-yl)azetidin-3-yl)-methoxy)ethyl)-1,3a,4,5,10,11a-hexahydro-2H-benzo[b]pyrrolo [2,3-f][1,4]diazo-cine-2,11(3H)-dione] | 2.58e+06
3 | C/C=C(\CN(C)C)C(=O)N1CC(OCCCN2C[C@H]3CC(=O)N(c4cc(C(F)(F)F)cc(C)n4)[C@@H]3C(=O)N(C)c3cccc(C)c32)C1 [Example 194, (3aR,11aS)-5-(3-((1-((E)-2-((dimeth-ylamino)methyl)-but-2-enoyl)azeti-din-3-yl)oxy)prop-yl)-6,10-dimethyl-1-(6-methyl-4-(trifluoromethyl)-pyridin-2-yl)-1,3a,4,5,10,11a-hexahydro-2H-benzo[b]pyrrolo [2,3-f][1,4]diazo-cine-2,11(3H)-dione] | 4.38e+06
4 | C/C=C(\CN(C)C)C(=O)N1CC(c2ccc(CN3C[C@H]4CC(=O)N(c5cc(C(F)(F)F)cc(C)n5)[C@@H]4C(=O)N(C)c4cccc(C)c43)cc2)C1 [Example 195, (3aR,11aS)-5-(4-(1-((E)-2-((dimeth-ylamino)methyl)-but-2-enoyl)azeti-din-3-yl)benzyl)-6,10-dimethyl-1-(6-methyl-4-(tri-fluoromethyl)pyr-idin-2-yl)-1,3a,4,5,10,11a-hexa-hydro-2H-benzo [b]pyrrolo[2,3-f] [1,4]diazocine-2,11(3H)-dione] | 5.22e+06
5 | Cc1cc(C(F)(F)F)cc(N2C(=O)C[C@@H]3CN(CCCOC4CN(C(=O)C5=CCCN(C)C5)C4)c4c(C)cccc4N(C)C(=O)[C@H]32)n1 [Example 196, (3aR,11aS)-6,10-dimethyl-5-(3-((1-(1-methyl-1,2,5,6-tetrahydropyridine-3-carbonyl)azeti-din-3-yl)oxy)prop-yl)-1-(6-methyl-4-(trifluoromethyl)-pyridin-2-yl)-1,3a,4,5,10,11a-hexahydro-2H-benzo[b]pyrrolo [2,3-f][1,4]diazo-cine-2,11(3H)-dione] | 2.06e+06
6 | Cc1cc(C(F)(F)F)cc(N2C(=O)C[C@@H]3CN(CCOCC4CN(C(=O)C5=CCCN(C)C5)C4)c4c(C)cccc4N(C)C(=O)[C@H]32)n1 [Example 197, (3aR,11aS)-6,10-dimethyl-5-(2-((1-(1-methyl-1,2,5,6-tetrahydropyridine-3-carbonyl)azeti-din-3-yl)methoxy)-ethyl)-1-(6-methyl-4-(trifluoromethyl)-pyridin-2-yl)-1,3a, 4,5,10,11a-hexa-hydro-2H-benzo [b]pyrrolo[2,3-f] [1,4]diazocine-2,11(3H)-dione] | 1.67e+06
7 | C#CC(=O)N1CCn2nc(CN3C[C@H]4CC(=O)N(c5cc(C(F)(F)F)cc(C)n5)[C@@H]4C(=O)N(C)c4cccc(C)c43)cc2C1 [Example 198, (3aR,11aS)-6,10-dimethyl-1-(6-methyl-4-(trifluoro-methyl)pyridin-2-yl)-5-((5-propiolo-yl-4,5,6,7-tetra-hydropyrazolo-[1,5-a]pyrazin-2-yl)methyl)-1,3a,4,5, 10,11a-hexahydro-2H-benzo[b]pyr-rolo[2,3-f][1,4] diazocine-2,11(3H)-dione] | 700000
8 | C#CC(=O)NC12CC(CN3C[C@H]4CC(=O)N(c5cc(C(F)(F)F)cc(C)n5)[C@@H]4C(=O)N(C)c4cccc(C)c43)(C1)C2 [Example 200, N-(3-(((3aR,11aS)-6,10-dimethyl-1-(6-methyl-4-(tri-fluoromethyl)pyri-din-2-yl)-2,11-dioxo-1,2,3,3a,4, 10,11,11a-octa-hydro-5H-benzo[b]pyrrolo[2,3-f][1,4]diazocin-5-yl)-methyl)bicyclo [1.1.1]pentan-1-yl)propiolamide] | 690000
9 | CC#CC(=O)N1CCn2cc(CN3C[C@H]4CC(=O)N(c5cc(C(F)(F)F)cc(C)n5)[C@@H]4C(=O)N(C)c4cccc(C)c43)nc2C1 [Example 201, (3aR,11aS)-5-((7-(but-2-ynoyl)-5,6,7,8-tetrahydro-imidazo[1,2-a]pyr-azin-2-yl)methyl)-6,10-dimethyl-1-(6-methyl-4-(tri-fluoromethyl)pyr-idin-2-yl)-1,3a,4,5,10,11a-hexa-hydro-2H-benzo [b]pyrrolo[2,3-f] [1,4]diazocine-2,11(3H)-dione] | 2.8e+06
10 | C=CC(=O)N1CCn2nc(CN3C[C@H]4CC(=O)N(c5cc(C(F)(F)F)cc(C)n5)[C@@H]4C(=O)N(C)c4cccc(C)c43)nc2C1 [Example 202, (3aR,11aS)-5-((7-acryloyl-5,6,7,8-tetrahydro-[1,2,4]triazolo [1,5-a]pyrazin-2-yl)methyl)-6,10-dimethyl-1-(6-methyl-4-(trifluoromethyl)pyridin-2-yl)-1,3a,4,5,10,11a-hexahydro-2H-benzo[b]pyrrolo [2,3-f][1,4]diazocine-2,11(3H)-dione] | 5.56e+06
11 | C=CC(=O)N1CCn2cc(CN3C[C@H]4CC(=O)N(c5cc(C(F)(F)F)cc(C)n5)[C@@H]4C(=O)N(C)c4cccc(C)c43)nc2C1 [Example 203, (3aR,11aS)-5-((7-acryloyl-5,6,7,8-tetrahydroimidazo [1,2-a]pyrazin-2-yl)methyl)-6,10-dimethyl-1-(6-methyl-4-(trifluoromethyl)pyridin-2-yl)-1,3a,4,5,10,11a-hexahydro-2H-benzo[b]pyrrolo [2,3-f][1,4]diazocine-2,11(3H)-dione] | 4.32e+06
12 | C=CC(=O)N1CCC(n2cnc(CN3C[C@H]4CC(=O)N(c5cc(C(F)(F)F)cc(C)n5)[C@@H]4C(=O)N(C)c4cccc(C)c43)n2)CC1 [Example 204, (3aR,11aS)-5-((1-(1-acryloylpiperidin-4-yl)-1H-1,2,4-triazol-3-yl)methyl)-6,10-dimethyl-1-(6-methyl-4-(trifluoromethyl)pyridin-2-yl)-1,3a,4,5,10,11a-hexahydro-2H-benzo[b]pyrrolo [2,3-f][1,4]diazocine-2,11(3H)-dione] | 980000
13 | C=CC(=O)N1CC(N(C)CCCN2C[C@H]3CC(=O)N(c4cc(C(F)(F)F)cc(C)n4)[C@@H]3C(=O)N(C)c3cccc(C)c32)C1 [Example 205, (3aR,11aS)-5-(3-((1-acryloylazetidin-3-yl)(methyl)amino)propyl)-6,10-dimethyl-1-(6-methyl-4-(trifluoromethyl)pyridin-2-yl)-1,3a,4,5,10,11a-hexahydro-2H-benzo[b]pyrrolo [2,3-f][1,4]diazocine-2,11(3H)-dione] | 1.67e+06
14 | Cc1cc(C(F)(F)F)cc(N2C(=O)C[C@@H]3CN(Cc4ccc(NC(=O)/C=C/CN(C)C)cc4)c4c(C)cccc4N(C)C(=O)[C@H]32)n1 [Example 207, (E)-N-(4-(((3aR, 11aS)-6,10-dimethyl-1-(6-methyl-4-(trifluoromethyl)pyridin-2-yl)-2,11-dioxo-1,2,3,3a,4,10,11,11a-octahydro-5H-benzo[b]pyrrolo[2,3-f][1,4]diazocin-5-yl)methyl)phenyl)-4-(dimethylamino) but-2-enamide] | 1.82e+06
15 | COc1cc(CN2C[C@H]3CC(=O)N(c4cc(C(F)(F)F)cc(C)n4)[C@@H]3C(=O)N(C)c3cccc(C)c32)ccc1NC(=O)/C=C/CN(C)C [Example 208, (E)-N-(4-(((3aR, 11aS)-6,10-dimethyl-1-(6-methyl-4-(trifluoromethyl)pyridin-2-yl)-2,11-dioxo-1,2,3,3a,4,10,11,11a-octahydro-5H-benzo[b]pyrrolo [2,3-f][1,4]diazocin-5-yl)methyl)-2-methoxyphenyl)-4-(dimethylamino) but-2-enamide] | 4.36e+06
16 | C=C(CN(C)C)C(=O)Nc1ccc(CN2C[C@H]3CC(=O)N(c4cc(C(F)(F)F)cc(C)n4)[C@@H]3C(=O)N(C)c3cccc(C)c32)cc1 [Example 209, N-(4-(((3aR,11aS)-6,10-dimethyl-1-(6-methyl-4-(trifluoromethyl)pyridin-2-yl)-2,11-dioxo-1,2,3,3a,4,10,11,11a-octahydro-5H-benzo[b]pyrrolo[2,3-f][1,4]diazocin-5-yl)methyl)phenyl)-2-((dimethylamino)methyl)acrylamide] | 530000
